Source: ChEMBL document CHEMBL1125964, “Synthesis and biological activivity of juvenele hormone analogues (JHA) for Trypanosoma cruzi” (1991)

Experiments:
Format in all cases: functional
Trypanosoma cruzi [1] = assay: Compound was evaluated for its percent inhibition of growth of Trypanosoma cruzi at of 50 uM/L
Trypanosoma cruzi [2] = assay: Compound was evaluated for its percent inhibition of growth of Trypanosoma cruzi at 100 uM/L
Trypanosoma cruzi [3] = assay: Compound was evaluated for its percent inhibition of thymidine incorporation in Trypanosoma cruzi without killing the cells at 25 degree Celsius and 100 uM/L
Trypanosoma cruzi [4] = assay: Compound was evaluated for its percent inhibition of thymidine incorporation in Trypanosoma cruzi without killing the cells at 25 degree Celsius and 50 uM/L
Trypanosoma cruzi [5] = assay: Compound was evaluated for its percent inhibition for thymidine incorporation in Trypanosoma cruzi without killing the cells at 25 degree Celsius and 17 uM/L

Compound | inhibition at 50 µM (Trypanosoma cruzi [1]) | inhibition at 100 µM (Trypanosoma cruzi [2]) | Inhibition (Trypanosoma cruzi [3]) | Inhibition (Trypanosoma cruzi [4]) | Inhibition (Trypanosoma cruzi [5])
COC(=O)OCCC/C=C(\C)CCC=C(C)C | 41.3% | 56% | 95.3% | 66.3% | 
COC(=O)OC(C)CC/C=C(\C)CCC=C(C)C (stereo unspecified) | 51% | 97.5% | 91.6% | 75.6% | 
C/C=C\CC/C(C)=C/CCC(C)OC(=O)OCC(C)C (stereo unspecified) | 47.6% | 75.4% | 89.6% | 70.1% | 
CCSC(=O)OC/C=C(\C)CC/C=C(\C)CCC1OC1(C)C (stereo unspecified) | 90.7% | 99% | 95.6% | 80.7% | 
CC(C)=CCC/C(C)=C/CCC(C)OC(=O)OCC(C)C (stereo unspecified) | 70.8% | 89.6% | 95.8% | 73.3% | 
C/C(=C\CCC(C)OC(=O)OCC(C)C)CCC1OC1(C)C (stereo unspecified) | 33.4% | 68% | 70% | 50.8% | 
CC(C)=CCC/C(C)=C/CCCOC(=O)OCC(C)C | 57.3% | 94% | 100.1% | 88.4% | 50.6%
C=CCOc1ccc(Oc2ccccc2)cc1 | 80.8% | 95.4% | 83.9% | 60.9% | 
COC(=O)OC/C=C(\C)CC/C=C(\C)CCC1OC1(C)C (stereo unspecified) | 44.8% | 62.8% | 46.3% | 25.7% | 
CC/C(C)=C\CC/C(C)=C/CCC(C)OC(=O)OCC(C)C (stereo unspecified) | 56.6% | 68% | 70.8% | 62.8% | 
CCSC(=O)OC(C)CC/C=C(\C)CC/C=C(/C)CC (stereo unspecified) | 50.7% | 79.4% | 75.2% | 65.3% | 
c1ccc(Oc2ccc(OCCOC3CCCCO3)cc2)cc1 (stereo unspecified) | 57% | 90.6% | 86.2% | 40.8% | 
CC(C)(C)OC(=O)CC(O)COc1ccc(Oc2ccccc2)cc1 (stereo unspecified) | 67.2% | 98.8% | 93.5% | 70.6% | 
COC(C)(C)CCCC(C)C/C=C/C(C)=C/C(=O)OC(C)C (stereo unspecified) | 60% | 92.5% | 86.5% | 70.5% | 
CCSC(=O)OC/C=C(\C)CC/C=C(\C)CCC=C(C)C | 69.3% | 94.2% | 72.6% | 57.9% | 
